The values below come from patent EP1935986B1, “Luminogenic and fluorogenic compounds and methods to detect molecules or conditions” (priority 2005, dated 2006).

One data set has as its system equine GST. Kind of data set: Two-step bioluminogenic GST assay with luciferin derivative. As to conditions: versus GST M1-1 and GST A1-1; result in words. Type of data set: biochemical. Here is the method:
The derivative was tested in a two step format. […] At different times after the reaction was initiated, a portion was removed and mixed with a luciferase reaction mixture. Reactions in which light production increased over time indicate that GST#3 is a substrate for the GST in that reaction.
Equine GST Solution: 25 mg of equine GST (Part G 6511, Sigma Chemical Company, St. Louis, MO) was dissolved in 5 ml of 10 mM BisTris buffer, pH 6.6. […] […] Glutathione (reduced) (Part G 4251, Sigma Chemical Company) was dissolved in water to create a 100 mM solution. GST #3 was dissolved in acetonitrile to produce a 12 mM solution.

For another data set, the target named is T1, QuantiLum Luciferase (Photinus pyralis, UniProt P08659).
T1 construct: purchased Promega Corporation E170
Kind of data set: Scaffolds: light emission of luciferin derivatives with QuantiLum luciferase alone, + Co A, + DTT, + Co A and DTT. Type of data set: biochemical, firefly.

Data set [1] can be described thus: Non-enzymatic transformation of luciferin derivative by glutathione (no GST), luciferase read-out. Type of data set: biochemical. As to conditions: time of mixing/20/40 minutes. Here is the method: Buffer stock solutions (1 M) of BisTris at pH 6.5, HEPES, pH 7.0, 7.5 and 8.0 and Tricine pH 8.5 were prepared by dissolving solid reagent obtained from Sigma Chemical Corporation and adjusting the pH to the desired value.
The stock of S. japonica GST used in Example 1A was diluted to 1 mg/ml with 10 mM BisTris pH 6.5.
The reactions were initiated by addition of GST #3 and mixing. […]

Another data set has as its target T2, GST M1-1 (Homo sapiens, UniProt P09488, K173N).
T2 construct: purchased Sigma
Kind of data set: Bioluminogenic GST assay with acetyl luciferin. Type of data set: biochemical. Conditions: versus GST A1-1; result in words.

A further data set concerns the target CYP3A5 (Homo sapiens, UniProt P20815). Kind of data set: Two-step luminescent P450 screen of luciferin derivatives. As to conditions: result in words.
Data set [2] concerns the target T3, CYP4F12 (Homo sapiens, UniProt Q9HCS2).
T3 construct: purchased Discovery Labware (BD/Gentest); host or cells: insect cell expression system (membrane fractions)
T3 sequence (Q9HCS2 1-524): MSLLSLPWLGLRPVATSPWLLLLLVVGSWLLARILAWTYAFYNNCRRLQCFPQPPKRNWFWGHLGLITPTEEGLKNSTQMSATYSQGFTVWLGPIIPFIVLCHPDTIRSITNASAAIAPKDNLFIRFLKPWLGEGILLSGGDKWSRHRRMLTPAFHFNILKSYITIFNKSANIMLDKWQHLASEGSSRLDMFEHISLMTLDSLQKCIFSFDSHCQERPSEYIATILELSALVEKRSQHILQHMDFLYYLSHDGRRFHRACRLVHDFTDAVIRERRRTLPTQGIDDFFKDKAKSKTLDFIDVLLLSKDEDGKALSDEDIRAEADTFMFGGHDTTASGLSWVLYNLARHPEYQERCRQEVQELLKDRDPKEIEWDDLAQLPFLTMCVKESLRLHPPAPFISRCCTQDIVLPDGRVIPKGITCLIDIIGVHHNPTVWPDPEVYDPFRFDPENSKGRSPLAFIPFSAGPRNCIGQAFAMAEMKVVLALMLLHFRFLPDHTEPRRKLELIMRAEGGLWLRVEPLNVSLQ
Kind of data set: Two-step luminescent P450 screen of luciferin derivatives. Type of data set: biochemical. Conditions: result in words. Here is the method:
P450s are Supersomes™ purchased from Discovery Labware (BD/Gentest). […] HLM is human liver microsomes.
1X substrate concentration: 50 µM.

Data set [3] deals with T4, CYP3A4 (Homo sapiens, UniProt P08684). Described as above. Conditions: result in words.
Another data set has as its system luciferase. Kind of data set: No-enzyme control: activity of luciferase towards the luciferin derivative (background luminescence).
Data set [4] concerns the target T3, CYP4F12. Conditions: previously shown (Cali, 2005b); cited from earlier work.
In data set [5] the target is T5, CYP3A7 (Homo sapiens, UniProt P24462). Put plainly: Two-step luminescent P450 screen of luciferin derivatives. Conditions: result in words.
Data set [6] concerns the target T5, CYP3A7.
For data set [7], the target named is T4, CYP3A4.
[8] abbreviates: Derivative Conc. 1.07, Co A + DTT.
[9] abbreviates: Derivative Conc. 3.13, Co A + DTT.
The mark [10] stands for this setting: Derivative Conc. 6.25, Co A + DTT.
The mark [11] stands for this setting: Derivative Conc. 12.5, Co A + DTT.
[12] abbreviates: Derivative Conc. 25, Co A + DTT.
Setting [13] is: Derivative Conc. 50, Co A + DTT.
[14] abbreviates: Derivative Conc. 100, Co A + DTT.

Read-outs that look alike come from different tables or passages of the source.

T1 sequence (P08659 whole entry): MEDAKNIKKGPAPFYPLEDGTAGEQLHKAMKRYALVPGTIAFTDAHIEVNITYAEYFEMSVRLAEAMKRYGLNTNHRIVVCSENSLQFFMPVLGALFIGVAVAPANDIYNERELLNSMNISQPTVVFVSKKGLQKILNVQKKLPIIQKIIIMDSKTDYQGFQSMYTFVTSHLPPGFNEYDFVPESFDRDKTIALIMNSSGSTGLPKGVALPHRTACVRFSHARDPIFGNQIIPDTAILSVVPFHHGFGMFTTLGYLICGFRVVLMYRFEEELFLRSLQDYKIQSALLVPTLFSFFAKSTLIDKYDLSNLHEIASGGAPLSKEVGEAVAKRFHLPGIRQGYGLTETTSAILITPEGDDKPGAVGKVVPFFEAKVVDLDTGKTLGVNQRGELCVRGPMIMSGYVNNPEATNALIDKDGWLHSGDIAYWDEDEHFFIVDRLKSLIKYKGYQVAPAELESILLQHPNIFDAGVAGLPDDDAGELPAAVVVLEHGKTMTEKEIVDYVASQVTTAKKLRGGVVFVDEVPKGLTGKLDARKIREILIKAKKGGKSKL
T4 sequence (P08684 2-503 limits assumed): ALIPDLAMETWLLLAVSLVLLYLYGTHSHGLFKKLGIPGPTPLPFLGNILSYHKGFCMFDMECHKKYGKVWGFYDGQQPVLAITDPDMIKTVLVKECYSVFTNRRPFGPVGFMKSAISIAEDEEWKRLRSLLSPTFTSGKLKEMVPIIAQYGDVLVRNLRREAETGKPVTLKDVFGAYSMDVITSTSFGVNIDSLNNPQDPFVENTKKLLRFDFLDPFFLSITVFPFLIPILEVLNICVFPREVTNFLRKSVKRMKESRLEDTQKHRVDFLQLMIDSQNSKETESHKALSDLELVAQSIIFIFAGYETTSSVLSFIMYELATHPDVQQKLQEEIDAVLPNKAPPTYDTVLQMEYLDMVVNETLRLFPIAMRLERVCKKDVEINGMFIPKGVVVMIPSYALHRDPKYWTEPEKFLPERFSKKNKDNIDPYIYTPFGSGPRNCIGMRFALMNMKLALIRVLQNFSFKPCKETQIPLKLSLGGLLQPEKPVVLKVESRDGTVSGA
T5 sequence (P24462 whole entry): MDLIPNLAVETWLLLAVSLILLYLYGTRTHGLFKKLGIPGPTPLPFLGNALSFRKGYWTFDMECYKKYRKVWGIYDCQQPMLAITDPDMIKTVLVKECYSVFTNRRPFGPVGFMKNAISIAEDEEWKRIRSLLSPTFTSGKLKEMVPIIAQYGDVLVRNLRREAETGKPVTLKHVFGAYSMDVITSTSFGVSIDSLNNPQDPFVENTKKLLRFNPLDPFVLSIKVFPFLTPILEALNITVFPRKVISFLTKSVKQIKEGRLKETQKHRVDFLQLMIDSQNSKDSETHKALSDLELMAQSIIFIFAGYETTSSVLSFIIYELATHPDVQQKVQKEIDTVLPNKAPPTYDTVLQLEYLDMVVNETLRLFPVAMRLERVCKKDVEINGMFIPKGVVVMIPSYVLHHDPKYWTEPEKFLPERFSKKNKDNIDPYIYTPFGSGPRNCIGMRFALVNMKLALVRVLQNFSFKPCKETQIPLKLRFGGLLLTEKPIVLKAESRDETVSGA
CYP3A5, sequence (P20815 whole entry): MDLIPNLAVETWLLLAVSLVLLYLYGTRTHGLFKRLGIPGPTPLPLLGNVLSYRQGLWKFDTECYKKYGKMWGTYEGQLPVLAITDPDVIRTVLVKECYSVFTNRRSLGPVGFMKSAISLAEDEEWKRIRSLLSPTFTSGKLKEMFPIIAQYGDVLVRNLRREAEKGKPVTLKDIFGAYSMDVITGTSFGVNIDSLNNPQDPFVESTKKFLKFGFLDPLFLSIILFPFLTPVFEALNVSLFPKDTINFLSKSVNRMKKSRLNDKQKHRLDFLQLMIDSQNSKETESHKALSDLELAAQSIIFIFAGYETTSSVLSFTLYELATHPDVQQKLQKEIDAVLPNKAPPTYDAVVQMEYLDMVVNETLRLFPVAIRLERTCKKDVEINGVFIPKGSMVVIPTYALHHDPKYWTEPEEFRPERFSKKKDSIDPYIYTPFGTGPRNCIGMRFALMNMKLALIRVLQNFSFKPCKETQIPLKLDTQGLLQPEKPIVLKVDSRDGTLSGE
T2 sequence (P09488 whole entry K173N): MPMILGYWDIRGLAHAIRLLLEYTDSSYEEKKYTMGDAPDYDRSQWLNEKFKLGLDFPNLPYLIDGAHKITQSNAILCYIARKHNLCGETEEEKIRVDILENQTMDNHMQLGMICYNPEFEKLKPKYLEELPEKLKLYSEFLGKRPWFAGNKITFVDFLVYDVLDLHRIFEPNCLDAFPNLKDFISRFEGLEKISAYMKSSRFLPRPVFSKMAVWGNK

Regarding `O=C(O)[C@H]1CSC(c2ccc3cc(Oc4ccc(C(F)(F)F)cc4[N+](=O)[O-])ccc3n2)=N1` [GST #3, 6-(2-nitro-4-trifluoromethyl-phenoxy)quinolinyl-luciferin], the “substrate preference among GSTs in a light generating reaction” value in the data set with equine GST is recorded as “better substrate for equine GST”. Also, the light emission values at QuantiLum Luciferase (Derivative Conc. 1.07, Alone) was 3232; on QuantiLum Luciferase (Derivative Conc. 1.07, Co A), 3081; at QuantiLum Luciferase (setting [8]) it was 6964; on QuantiLum Luciferase (Derivative Conc. 1.07, DTT), 5953; at QuantiLum Luciferase (Derivative Conc. 3.13, Alone), 4913; at QuantiLum Luciferase (Derivative Conc. 3.13, Co A), 4832. Further, the light emission values is on record as 8826 on QuantiLum Luciferase (setting [9]); 9106 on QuantiLum Luciferase (Derivative Conc. 3.13, DTT); 7682 at QuantiLum Luciferase (Derivative Conc. 6.25, Alone); 7149 on QuantiLum Luciferase (Derivative Conc. 6.25, Co A); 10423 on QuantiLum Luciferase (setting [10]); 11164 at QuantiLum Luciferase (Derivative Conc. 6.25, DTT). For the same compound, the light emission values at QuantiLum Luciferase (Derivative Conc. 12.5, Alone) was found to be 11752; on QuantiLum Luciferase (Derivative Conc. 12.5, Co A), 10674; at QuantiLum Luciferase (setting [11]), 14298; on QuantiLum Luciferase (Derivative Conc. 12.5, DTT), 16587; at QuantiLum Luciferase (Derivative Conc. 25, Alone) it was 15957; at QuantiLum Luciferase (Derivative Conc. 25, Co A) it was 14791. Further, the light emission values on QuantiLum Luciferase (setting [12]) amounted to 18145; on QuantiLum Luciferase (Derivative Conc. 25, DTT), 21256; on QuantiLum Luciferase (Derivative Conc. 50, Alone), 17409; at QuantiLum Luciferase (Derivative Conc. 50, Co A), 15440; at QuantiLum Luciferase (setting [13]), 20009; on QuantiLum Luciferase (Derivative Conc. 50, DTT), 22888. Further, the light emission values stood at 16388 on QuantiLum Luciferase (Derivative Conc. 100, Alone); 18343 at QuantiLum Luciferase (Derivative Conc. 100, Co A); 19129 on QuantiLum Luciferase (setting [14]); 21472 on QuantiLum Luciferase (Derivative Conc. 100, DTT). Moreover, the “Light Output” value in data set [1] (Table 4 reaction 2: BisTris pH 6.5, 5 µl 100 mM glutathione, no GST, 20 minutes post mixing) worked out at 1.287; in data set [1] (Table 4 reaction 2: BisTris pH 6.5, 5 µl 100 mM glutathione, no GST, 40 minutes post mixing), 1.761; in data set [1] (Table 4 reaction 2: BisTris pH 6.5, 5 µl 100 mM glutathione, no GST, at time of mixing), 1.13; in data set [1] (Table 4 reaction 4: HEPES pH 7.0, glutathione, 20 minutes post mixing), 1.178; in data set [1] (Table 4 reaction 4: HEPES pH 7.0, glutathione, 40 minutes post mixing), 2.2; in data set [1] (Table 4 reaction 4: HEPES pH 7.0, glutathione, at time of mixing), 1.156.
As to `COC(=O)[C@H]1CSC(c2ccc3cc(Oc4ccc(C(F)(F)F)cc4[N+](=O)[O-])ccc3n2)=N1` [GST-4, Methyl 6-(2-nitro-4-trifluoromethyl-phenoxy)quinolinyl-luciferin ester], at GST M1-1, the “substrate preference among GSTs in a light generating reaction” value is listed as “better substrate for GST M1-1”.
As to `O=C(O)[C@H]1CSC(c2nc3ccc(OCc4ccc(C(F)(F)F)cc4)cc3s2)=N1` [Luciferin-6-trifluoromethylbenzylether], the “P450 activity / selectivity with the derivative as substrate” value (“P450 activity / selectivity” for short) on CYP3A5 was “enhanced selectivity”.
Regarding `CC(=O)N1CCN(c2ccc(OCC3COC(Cn4ccnc4)(c4ccc(Cl)cc4Cl)O3)cc2)CC1` (centres unmarked) [ketoconazole], the “CYP3A-dependent luminescence in human hepatocytes” value in the data set on CYP3A was “inhibition by ketoconazole of both basal and rifampicin-induced activity”.
For the compound `O=C(O)[C@H]1CSC(c2nc3ccc(OCc4ccccc4)cc3s2)=N1` [luciferin 6-benzyl ether, reference compound], on CYP4F12 [2], the “P450 activity / cross reactivity with the derivative as substrate” value is reported as “cross reacted”. Further, the light emission values at QuantiLum Luciferase (Derivative Conc. 1.07, Alone) is 29234; on QuantiLum Luciferase (Derivative Conc. 1.07, Co A), 50144; on QuantiLum Luciferase (setting [8]), 51799; on QuantiLum Luciferase (Derivative Conc. 1.07, DTT), 57066; on QuantiLum Luciferase (Derivative Conc. 3.13, Alone), 32994; on QuantiLum Luciferase (Derivative Conc. 3.13, Co A), 55778. For the same compound, the light emission values is on record as 80626 on QuantiLum Luciferase (setting [9]); 86445 on QuantiLum Luciferase (Derivative Conc. 3.13, DTT); 38838 on QuantiLum Luciferase (Derivative Conc. 6.25, Alone); 58288 at QuantiLum Luciferase (Derivative Conc. 6.25, Co A); 105912 at QuantiLum Luciferase (setting [10]); 100044 at QuantiLum Luciferase (Derivative Conc. 6.25, DTT). Further, the light emission values came to 40486 at QuantiLum Luciferase (Derivative Conc. 12.5, Alone); 57996 on QuantiLum Luciferase (Derivative Conc. 12.5, Co A); 97371 at QuantiLum Luciferase (setting [11]); 94861 at QuantiLum Luciferase (Derivative Conc. 12.5, DTT); 40093 at QuantiLum Luciferase (Derivative Conc. 25, Alone); 53097 at QuantiLum Luciferase (Derivative Conc. 25, Co A). Further, the light emission values on QuantiLum Luciferase (setting [12]) worked out at 90306; on QuantiLum Luciferase (Derivative Conc. 25, DTT) it was 84034; on QuantiLum Luciferase (Derivative Conc. 50, Alone) it was 30609; at QuantiLum Luciferase (Derivative Conc. 50, Co A), 38349; at QuantiLum Luciferase (setting [13]), 98716; at QuantiLum Luciferase (Derivative Conc. 50, DTT) it was 80001. Further, the light emission values at QuantiLum Luciferase (Derivative Conc. 100, Alone) amounted to 31581; on QuantiLum Luciferase (Derivative Conc. 100, Co A), 33199; on QuantiLum Luciferase (setting [14]), 64460; on QuantiLum Luciferase (Derivative Conc. 100, DTT), 54592. For the same compound, at CYP3A4 [3], the “competition at the substrate binding sites on CYP3A4” value is given as “only competitive at 1 site”. Moreover, in the data set on luciferase (on a BMG luminometer, minus P450), the background luminescence entry is on record as “about 5000 RLU”. Besides, the “background luminescence (minus P450 control samples)” value in the data set with luciferase (result in words) was “high background luminescence”. For the same compound, at CYP4F12 [4], the “reaction with CYP4F12” value is recorded as “react also with CYP4F12”. Besides, on CYP3A7 [5], the “P450 activity / selectivity” value is “cross reacted significantly”.
As to quinolylluciferin 6-benzyl ether, the “P450 activity / selectivity” value at CYP3A7 [6] is “preferred substrate”; on CYP3A4 [7], “to a lesser degree a substrate”.
